Experimental data published in patent US8541395B2 (priority 2009, dated 2013).

How the values were obtained:
Kv1.5 = Kv1.5 (Homo sapiens, UniProt P22460); experiment: Patch clamp assay, ion channel inhibition; type: cell-based; conditions: 2000 μM; n=2
Description: (§1) The studies were conducted according to the conventional procedures.
(§2) The exposure duration of each channel was 5 minutes. […] Any left current after exposure to this dose was digitally subtracted to eliminate the contribution of any endogenous current.

Kir2.1 = target: T1, Kir2.1 (Homo sapiens, UniProt P63252); experiment: Patch clamp assay, ion channel inhibition; type: cell-based; conditions: 100 μM; n=2
T1 sequence (P63252 1-427): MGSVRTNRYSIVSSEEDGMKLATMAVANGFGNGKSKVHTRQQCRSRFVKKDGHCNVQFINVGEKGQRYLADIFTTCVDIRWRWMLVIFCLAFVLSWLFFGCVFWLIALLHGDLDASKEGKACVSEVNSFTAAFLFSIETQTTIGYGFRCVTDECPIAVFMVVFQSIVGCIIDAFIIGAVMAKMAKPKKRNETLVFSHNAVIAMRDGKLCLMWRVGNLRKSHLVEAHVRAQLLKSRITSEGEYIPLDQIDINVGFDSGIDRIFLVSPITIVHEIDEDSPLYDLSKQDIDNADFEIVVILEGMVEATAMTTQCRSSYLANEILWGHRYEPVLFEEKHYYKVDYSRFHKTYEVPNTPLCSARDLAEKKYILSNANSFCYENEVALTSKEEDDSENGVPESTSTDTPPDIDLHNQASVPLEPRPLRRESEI

Kir3.1/3.4 = target: T2, Kir3.1/3.4 (Homo sapiens, UniProt P48544+P48549); experiment: Patch clamp assay, ion channel inhibition; type: cell-based; conditions: 300 μM; n=2
T2 sequence (P48549 1-501): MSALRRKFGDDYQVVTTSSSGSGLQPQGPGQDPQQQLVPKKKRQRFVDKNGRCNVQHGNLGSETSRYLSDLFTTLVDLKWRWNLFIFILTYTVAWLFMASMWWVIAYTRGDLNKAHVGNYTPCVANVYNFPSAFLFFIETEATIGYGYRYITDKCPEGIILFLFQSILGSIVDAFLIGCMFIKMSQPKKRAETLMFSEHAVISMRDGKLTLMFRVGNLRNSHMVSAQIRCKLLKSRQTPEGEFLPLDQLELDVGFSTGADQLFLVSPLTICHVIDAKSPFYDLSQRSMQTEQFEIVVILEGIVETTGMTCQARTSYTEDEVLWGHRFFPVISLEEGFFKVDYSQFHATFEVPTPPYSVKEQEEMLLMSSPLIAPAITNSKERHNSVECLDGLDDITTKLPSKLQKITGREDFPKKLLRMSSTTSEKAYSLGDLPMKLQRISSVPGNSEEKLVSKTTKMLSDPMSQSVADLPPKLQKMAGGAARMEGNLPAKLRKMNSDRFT
T2 sequence (P48544 1-419): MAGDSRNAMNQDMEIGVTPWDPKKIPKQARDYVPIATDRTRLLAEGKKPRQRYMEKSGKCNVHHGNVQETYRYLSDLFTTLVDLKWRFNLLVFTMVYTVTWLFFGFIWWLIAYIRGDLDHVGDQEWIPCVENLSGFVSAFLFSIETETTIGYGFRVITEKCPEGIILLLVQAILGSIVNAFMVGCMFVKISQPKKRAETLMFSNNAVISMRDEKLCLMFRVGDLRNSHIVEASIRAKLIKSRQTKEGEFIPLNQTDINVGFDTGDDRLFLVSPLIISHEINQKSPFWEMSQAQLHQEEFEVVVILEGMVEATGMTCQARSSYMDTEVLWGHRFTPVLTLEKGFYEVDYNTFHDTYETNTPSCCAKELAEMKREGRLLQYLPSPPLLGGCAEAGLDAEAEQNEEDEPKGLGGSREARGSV
Description: as §1, §2

KvLQT/minK = target: T3, KvLQT/minK (Homo sapiens, UniProt P51787); experiment: Patch clamp assay, ion channel inhibition; type: cell-based; conditions: 30 μM; n=2
T3 construct: expressed in transfected cells
T3 sequence (P51787 whole entry): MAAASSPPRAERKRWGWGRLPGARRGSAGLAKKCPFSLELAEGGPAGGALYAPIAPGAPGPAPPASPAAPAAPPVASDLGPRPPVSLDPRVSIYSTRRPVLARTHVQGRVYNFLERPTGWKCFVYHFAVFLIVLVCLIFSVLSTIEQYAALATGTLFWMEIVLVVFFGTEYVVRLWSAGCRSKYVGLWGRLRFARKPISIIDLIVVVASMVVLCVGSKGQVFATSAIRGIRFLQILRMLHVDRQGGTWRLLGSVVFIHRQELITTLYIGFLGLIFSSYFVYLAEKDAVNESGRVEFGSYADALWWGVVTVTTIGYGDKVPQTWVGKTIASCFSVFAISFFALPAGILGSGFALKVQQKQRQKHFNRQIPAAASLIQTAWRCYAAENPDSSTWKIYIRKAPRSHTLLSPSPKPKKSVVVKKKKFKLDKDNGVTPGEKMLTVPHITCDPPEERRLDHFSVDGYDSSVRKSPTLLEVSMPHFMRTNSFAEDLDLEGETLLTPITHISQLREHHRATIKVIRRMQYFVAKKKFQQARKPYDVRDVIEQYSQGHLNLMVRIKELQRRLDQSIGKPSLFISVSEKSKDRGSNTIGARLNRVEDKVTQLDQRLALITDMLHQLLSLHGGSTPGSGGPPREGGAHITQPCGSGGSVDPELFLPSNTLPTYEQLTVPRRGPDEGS
Description: as §1, §2

Kv4.3 = target: T4, Kv4.3 (Homo sapiens, UniProt Q9UK17); experiment: Patch clamp assay, ion channel inhibition; conditions: read-out: Mean % inhibition (positive control)
T4 sequence (Q9UK17 1-655): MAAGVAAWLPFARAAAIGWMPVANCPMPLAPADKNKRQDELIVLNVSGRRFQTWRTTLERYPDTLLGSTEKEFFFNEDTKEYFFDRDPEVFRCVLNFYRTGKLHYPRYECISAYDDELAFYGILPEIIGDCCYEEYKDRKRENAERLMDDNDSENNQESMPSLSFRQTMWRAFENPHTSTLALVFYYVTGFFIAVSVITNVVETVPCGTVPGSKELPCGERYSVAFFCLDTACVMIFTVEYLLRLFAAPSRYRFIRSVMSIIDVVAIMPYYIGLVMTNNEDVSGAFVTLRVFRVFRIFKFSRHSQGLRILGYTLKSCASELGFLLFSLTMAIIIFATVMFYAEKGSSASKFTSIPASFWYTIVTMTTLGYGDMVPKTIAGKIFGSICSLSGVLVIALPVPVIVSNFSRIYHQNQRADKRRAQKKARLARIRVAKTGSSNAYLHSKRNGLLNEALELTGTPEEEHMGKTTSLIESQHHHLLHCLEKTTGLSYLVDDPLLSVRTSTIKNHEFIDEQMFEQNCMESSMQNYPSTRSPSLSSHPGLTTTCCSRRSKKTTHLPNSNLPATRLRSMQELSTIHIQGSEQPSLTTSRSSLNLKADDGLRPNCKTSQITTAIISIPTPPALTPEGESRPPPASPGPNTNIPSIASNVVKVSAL
Description: as §1, §2

Kir6.2/SUR2A = Kir6.2/SUR2A (Homo sapiens, UniProt O60706+Q14654); experiment: Patch clamp assay, ion channel inhibition; type: cell-based; conditions: n=2, read-out: Mean % inhibition (positive control)
Chain of Kir6.2/SUR2A (Q14654 whole entry): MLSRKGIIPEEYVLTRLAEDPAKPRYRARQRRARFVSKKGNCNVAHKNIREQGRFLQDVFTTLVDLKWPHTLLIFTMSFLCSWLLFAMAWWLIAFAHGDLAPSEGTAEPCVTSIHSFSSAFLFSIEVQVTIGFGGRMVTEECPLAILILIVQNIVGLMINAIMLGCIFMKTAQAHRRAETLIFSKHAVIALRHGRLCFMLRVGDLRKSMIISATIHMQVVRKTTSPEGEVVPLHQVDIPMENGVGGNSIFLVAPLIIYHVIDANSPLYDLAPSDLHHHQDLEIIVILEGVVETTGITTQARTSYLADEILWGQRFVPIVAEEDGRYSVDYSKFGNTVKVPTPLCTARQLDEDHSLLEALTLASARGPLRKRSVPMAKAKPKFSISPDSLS
Chain of Kir6.2/SUR2A (O60706 whole entry): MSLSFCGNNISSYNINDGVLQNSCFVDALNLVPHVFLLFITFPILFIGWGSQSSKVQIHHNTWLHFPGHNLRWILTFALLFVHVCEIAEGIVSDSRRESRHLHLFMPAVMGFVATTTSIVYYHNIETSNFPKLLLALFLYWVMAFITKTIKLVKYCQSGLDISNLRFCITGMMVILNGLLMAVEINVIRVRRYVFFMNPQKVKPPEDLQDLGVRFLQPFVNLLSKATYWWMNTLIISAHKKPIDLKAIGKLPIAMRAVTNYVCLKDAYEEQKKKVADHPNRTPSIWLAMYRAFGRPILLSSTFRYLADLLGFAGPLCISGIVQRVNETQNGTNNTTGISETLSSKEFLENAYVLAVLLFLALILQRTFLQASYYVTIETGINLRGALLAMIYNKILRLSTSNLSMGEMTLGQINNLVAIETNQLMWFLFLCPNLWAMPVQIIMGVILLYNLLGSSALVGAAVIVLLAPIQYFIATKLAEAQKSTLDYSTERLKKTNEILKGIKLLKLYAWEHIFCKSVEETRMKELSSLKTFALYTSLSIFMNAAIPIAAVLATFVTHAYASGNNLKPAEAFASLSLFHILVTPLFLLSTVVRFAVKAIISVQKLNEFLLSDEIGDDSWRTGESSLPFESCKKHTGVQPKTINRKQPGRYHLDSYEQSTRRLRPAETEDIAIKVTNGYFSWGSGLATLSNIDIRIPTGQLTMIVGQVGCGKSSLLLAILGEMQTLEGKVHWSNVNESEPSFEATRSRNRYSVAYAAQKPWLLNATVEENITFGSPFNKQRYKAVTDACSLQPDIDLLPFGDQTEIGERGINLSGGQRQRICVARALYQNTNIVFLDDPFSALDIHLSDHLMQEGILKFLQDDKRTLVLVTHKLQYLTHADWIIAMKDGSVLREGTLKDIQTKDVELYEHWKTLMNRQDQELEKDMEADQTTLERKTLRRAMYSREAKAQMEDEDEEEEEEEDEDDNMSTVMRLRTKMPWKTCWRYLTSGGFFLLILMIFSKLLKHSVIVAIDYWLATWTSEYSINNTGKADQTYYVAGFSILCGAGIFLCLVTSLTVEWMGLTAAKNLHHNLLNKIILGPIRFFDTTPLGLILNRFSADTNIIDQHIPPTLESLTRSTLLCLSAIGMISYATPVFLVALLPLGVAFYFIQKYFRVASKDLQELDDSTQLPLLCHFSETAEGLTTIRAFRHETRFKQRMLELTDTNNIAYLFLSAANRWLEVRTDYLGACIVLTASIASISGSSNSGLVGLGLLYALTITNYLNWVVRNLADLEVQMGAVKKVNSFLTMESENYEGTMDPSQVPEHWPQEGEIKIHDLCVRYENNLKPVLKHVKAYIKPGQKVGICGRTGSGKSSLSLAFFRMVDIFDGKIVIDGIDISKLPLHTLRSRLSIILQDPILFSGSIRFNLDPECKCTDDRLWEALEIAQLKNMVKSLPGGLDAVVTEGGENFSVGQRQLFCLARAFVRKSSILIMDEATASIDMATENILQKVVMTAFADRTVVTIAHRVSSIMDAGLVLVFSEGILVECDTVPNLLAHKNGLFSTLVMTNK
Description: as §1, §2

left atrium of rats = experiment: Inotropism of isolated rat atrium (cardiac contraction force)
Source text: The left atrium of rats was used to assess the inotropic activity. The data were expressed as contraction force (g of tension), and were compared to the results obtained with bupivacaine.
The application of square pulses (5 V, 5 ms, 2 Hz) in the left atrium with frequency of 120 bpm was sufficient to produce a cardiac contraction force of 0.63±0.09 g of tension.

right atrium of rats = experiment: Chronotropism of isolated rat atrium (frequency of spontaneous contractions)
Source text: The right rat atrium was used to assess the chronotropic activity. The values of the spontaneous mechanical activity of the right atrium were expressed in contractions frequency or beats per minute (bpm). The heart rate was 298±50 contractions per minute in the rat right atrium.

male Swiss mice [1] = experiment: Hot plate assay; conditions: for effect of naloxone on the analgesic action: naloxone 5 mg/kg i.p., morphine dose printed as 'mg/kg', telocinobufagin 5 mg/kg oral
male Swiss mice [2] = experiment: Tail flick assay; conditions: for effect of naloxone on the analgesic action: naloxone 5 mg/kg i.p., morphine 10 mg/kg, telocinobufagin 5 mg/kg oral
[3] = system: rats with sciatic nerve ligature; experiment: Chronic constrictive injury (CCI) model, allodynia (von Frey); conditions: for effect of naloxone on the analgesic action, allodynia: naloxone 5 mg/kg i.p., morphine 10 mg/kg, telocinobufagin 5 mg/kg i.p.; for antinociceptive effect on allodynia: p<0.05
male Swiss mice [4] = experiment: Formalin assay (intraplantar 4% formalin, phases 1 and 2) in mice; conditions: for effect of naloxone on the analgesic action, phase 1 / effect of naloxone on the analgesic action, phase 2: naloxone 5 mg/kg i.p., morphine 10 mg/kg, telocinobufagin 5 mg/kg oral
male Swiss mice [5] = experiment: Contortion assay (0.6% acetic acid, abdominal contortions) in mice; conditions: for effect of naloxone on the analgesic action: naloxone 5 mg/kg i.p., morphine 10 mg/kg i.p., telocinobufagin 10 mg/kg oral
[6] = system: rats with sciatic nerve ligature; experiment: Chronic constrictive injury (CCI) model, hyperalgesia (Randall & Selitto paw pressure); conditions: for effect of naloxone on the analgesic action, hyperalgesia: naloxone 5 mg/kg i.p., morphine 10 mg/kg, telocinobufagin 5 mg/kg i.p.

Chain of Kv1.5 (P22460 whole entry): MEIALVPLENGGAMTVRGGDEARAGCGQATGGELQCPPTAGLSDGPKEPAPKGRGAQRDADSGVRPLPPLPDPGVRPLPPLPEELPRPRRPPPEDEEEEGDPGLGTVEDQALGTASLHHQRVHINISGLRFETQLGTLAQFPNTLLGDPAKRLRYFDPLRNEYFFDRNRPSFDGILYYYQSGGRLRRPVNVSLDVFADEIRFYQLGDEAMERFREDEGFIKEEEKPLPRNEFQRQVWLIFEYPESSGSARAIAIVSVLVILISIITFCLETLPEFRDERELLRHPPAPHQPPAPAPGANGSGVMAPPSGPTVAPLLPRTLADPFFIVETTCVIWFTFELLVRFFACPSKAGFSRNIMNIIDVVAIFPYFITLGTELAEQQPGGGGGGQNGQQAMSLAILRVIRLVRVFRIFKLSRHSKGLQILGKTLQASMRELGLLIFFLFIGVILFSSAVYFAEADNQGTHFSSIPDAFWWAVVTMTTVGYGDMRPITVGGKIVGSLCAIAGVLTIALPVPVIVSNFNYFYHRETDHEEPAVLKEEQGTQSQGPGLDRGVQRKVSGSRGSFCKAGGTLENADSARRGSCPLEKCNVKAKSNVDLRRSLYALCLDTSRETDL

## Nc1ccncc1 [4-AP]
Kv1.5
  Mean % inhibition (positive control): 85.1%

## [Ba] [Barium]
Kir2.1
  Mean % inhibition (positive control): 85.4%
Kir3.1/3.4
  Mean % inhibition (positive control): 86.6%

## CCS(=O)(=O)N(C)[C@H]1c2cc(C#N)ccc2OC(C)(C)[C@@H]1O [Chromanol-293B]
KvLQT/minK
  Mean % inhibition (positive control): 87.8%

## O=C(NCC1CCCCN1)c1cc(OCC(F)(F)F)ccc1OCC(F)(F)F (stereo not shown) [Flecainide]
Kv4.3
  inhibition at 100 µM: 96.1%

## COc1ccc(Cl)cc1C(=O)NCCc1ccc(S(=O)(=O)NC(=O)NC2CCCCC2)cc1 [Glibenclamide]
Kir6.2/SUR2A
  inhibition at 1 µM: 79.8%

## CCCCN1CCCCC1C(=O)Nc1c(C)cccc1C (stereo not shown) [bupivacaine, reference compound]
Left atrium of rats; 3×10^−5 M, basal 0.63±0.09, mean±SEM, n=6
  cardiac contraction force: 0.13±0.06 g of tension
Left atrium of rats; 10^−4 M, p<0.05
  cardiac contraction force: blocked completely the cardiac contraction force to zero
Right atrium of rats; 3×10^−5 M, basal 298±50, mean±standard error, n=6
  frequency of spontaneous cardiac activity: 9.6±2.4 bpm
Right atrium of rats; 10^−4 M, p<0.05
  heart rate (frequency of spontaneous cardiac activity): blocked completely the heart rate to zero

## CN1CC[C@]23c4c5ccc(O)c4O[C@H]2[C@@H](O)C=C[C@H]3[C@H]1C5.O=S(=O)(O)O [morphine, morphine sulfate, reference compound]
Male Swiss mice [1]
  effect of naloxone on the analgesic action: blocked
Male Swiss mice [2]
  effect of naloxone on the analgesic action: blocked
[3]; intraperitoneal morphine 10 mg/kg
  reversion of the allodynia (compared to RP): ~50%
[3]
  effect of naloxone on the analgesic action, allodynia: blocked
Male Swiss mice [4]; phase 1
  effect of naloxone on the analgesic action, phase 1: blocked
Male Swiss mice [4]; phase 2
  effect of naloxone on the analgesic action, phase 2: blocked
Male Swiss mice [5]
  effect of naloxone on the analgesic action: blocked
[6]
  effect of naloxone on the analgesic action, hyperalgesia: blocked

## C[C@]12CC[C@H](O)C[C@@]1(O)CC[C@@H]1[C@@H]2CC[C@]2(C)[C@@H](c3ccc(=O)oc3)CC[C@]12O [telocinobufagin, (3β,5β)-3,5,14-trihydroxy-bufa-20,22-dienolide]
Left atrium of rats; 10^−3 M during 12 minutes, p>0.05
  alteration of the cardiac contraction force: did not produce significant alteration
Left atrium of rats; 10^−7 to 10^−4 M
  alteration of the cardiac contraction force compared to the control: no significant alteration
Right atrium of rats; 10^−7 M to 10^−4 M, n=6, p>0.05
  alteration of the spontaneous mechanical cardiac activity compared to the control: no significant alteration
Solubility; 50% DMSO (v/v in water)
  solubility in 50% DMSO: soluble
Solubility; ethanol (100%)
  solubility in ethanol: soluble
Solubility; pure chloroform
  solubility in chloroform: soluble
Solubility; water
  solubility in water: insoluble
Male Swiss mice [1]
  effect of naloxone on the analgesic action: did not block
Male Swiss mice [1]; oral, dose printed as 'mg/kg' without figure, p<0.001
  increase of the response (latency) compared to control group: approximately 450%
Male Swiss mice [2]; doses of 2.5 and 5 mg/kg oral, p<0.05
  antinociceptive effect (tail flick latency): significant antinociceptive effects
Male Swiss mice [2]
  effect of naloxone on the analgesic action: did not block
[3]; 5 mg/kg i.p.
  antinociceptive effect on allodynia: blocking completely the allodynia
[3]; 20 mg/kg oral
  antinociceptive effect on allodynia: blocking completely the allodynia
[3]; intraperitoneal 5 mg/kg
  duration of the analgesic effects on allodynia: around 6 hours
[3]; intraperitoneal TBC 5 mg/kg
  reversion of the allodynia (compared to RP): reverted completely the allodynia
[3]
  effect of naloxone on the analgesic action, allodynia: did not block significantly
[3]; oral 20 mg/kg
  duration of the analgesic effects on allodynia: around 6 hours
[3]; oral TBC 20 mg/kg
  reversion of the allodynia (compared to RP): reverted completely the allodynia
Male Swiss mice [4]; phase 1, 10 mg/kg oral vs diclofenac 50, dipyrone 50, codeine 20 mg/kg i.p., p<0.05
  antinociceptive effect compared to the other analgesics, phase 1: pretty much superior to that of the other analgesics
Male Swiss mice [4]; phase 1, 10 mg/kg oral, p<0.005
  licks blocked compared to the control group, phase 1: ~80%
Male Swiss mice [4]; phase 1
  effect of naloxone on the analgesic action, phase 1: did not block
Male Swiss mice [4]; phase 1, telocinobufagin 10 mg/kg oral vs morphine sulfate 10 mg/kg i.p.
  antinociceptive effect, mol to mol, greater than that of morphine, phase 1: ~40%
Male Swiss mice [4]; phase 2, 5 mg/kg oral vs diclofenac 50, dipyrone 50, codeine 20 mg/kg i.p., p<0.05
  antinociceptive effect compared to the other analgesics, phase 2: pretty much superior to that of the other analgesics
Male Swiss mice [4]; phase 2, 10 mg/kg oral, p<0.0001
  licks blocked compared to the control group, phase 2: ~100%
Male Swiss mice [4]; phase 2
  effect of naloxone on the analgesic action, phase 2: did not block
Male Swiss mice [4]; phase 2, telocinobufagin 5 mg/kg oral vs morphine sulfate 10 mg/kg i.p.
  antinociceptive effect, mol to mol, greater than that of morphine, phase 2: ~58%
Male Swiss mice [5]; 10 mg/kg oral vs diclofenac 50, dipyrone 50, codeine 20 mg/kg i.p., p<0.05
  antinociceptive effect compared to the other analgesics: pretty much superior to the effects of the other analgesics
Male Swiss mice [5]; 10 mg/kg oral, mice, p<0.001
  contortions blocked compared to the control group: ~90%
Male Swiss mice [5]
  effect of naloxone on the analgesic action: did not block
Male Swiss mice [5]; telocinobufagin 10 mg/kg oral vs morphine sulfate 10 mg/kg i.p.
  antinociceptive effect, mol to mol, greater than that of morphine: ~40%
[6]; intraperitoneal 5 mg/kg
  duration of the analgesic effects on hyperalgesia: around 6 hours
[6]; intraperitoneal 5 mg/kg, p<0.001
  increase of the response compared to the control group (RPtest), hyperalgesia: approximately 9 times
[6]
  effect of naloxone on the analgesic action, hyperalgesia: did not block significantly
[6]; oral 20 mg/kg
  duration of the analgesic effects on hyperalgesia: around 6 hours
[6]; oral 20 mg/kg, p<0.05
  increase of the response compared to the control group (RPtest), hyperalgesia: ~3.9 times
[6]; telocinobufagin 5 mg/kg i.p. (20 mg/kg oral) vs morphine sulfate 10 mg/kg i.p.
  antinociceptive effect, mol to mol, greater than that of morphine, hyperalgesia: approximately 900%
[6]; vs diclofenac, codeine, dipyrone, amitriptyline, carbamazepine, prednisone, p<0.05
  antinociceptive effect compared to the other analgesics, hyperalgesia: pretty much superior to that of the other analgesics
